Results reported in publication PMC12379584, “Characterization of the ligand binding pocket of the virulence regulator Rns, a member of the AraC/XylS family of transcription factors” (mSphere, 2025).
pIC50: −log10 of the molar value.

Experiments:
MBP-Rns [1] = target: MBP-Rns (Escherichia coli, UniProt P16114, H20A); test: biochemical
MBP-Rns [2] = target: MBP-Rns (Escherichia coli, UniProt P16114, R75A); test: biochemical
MBP-Rns [3] = target: T1, MBP-Rns (Escherichia coli, UniProt P16114); test: EMSA, inhibition of DNA binding; assay type: biochemical
T1 construct: full-length codon-optimized Rns with N-terminal MBP solubility tag kept (pMBPRnsOPT2, pMalC2), expressed in E. coli BL21, MBPTrap and heparin columns

MBP-Rns [4] = target: MBP-Rns (Escherichia coli, UniProt P16114, I14F/I17F); test: biochemical

Q: How did the pIC50 (MBP-Rns [1]) turn out when `CCCCCCCCCC(=O)O` [decanoic acid] was run?
A: The pIC50 was less than 2.00.

Q: What about the pIC50 (MBP-Rns [2]) of the same compound?
A: Its pIC50 is less than 2.00.

Q: What about the pIC50 (MBP-Rns [3]) of the same compound?
A: The pIC50 was 2.94.

Q: What about the pIC50 (MBP-Rns [4]) of the same compound?
A: The pIC50 was less than 2.00.
